The source of these data is publication PMC10300102, “In vivo inhibition of nuclear ACE2 translocation protects against SARS-CoV-2 replication and lung damage through epigenetic imprinting” (Nature Communications, 2023).

Structures can show the parent of a compound that is named as a salt. Where two headings read alike, the source gives them in different places.

This data set can be described thus: In vitro monkey plasma assay. Format: in vitro ADME, cynomolgus monkey. The following applies: for remaining at 0.25 h, 2 µM: time 15 min; for remaining at 0.5 h, 2 µM: time 30 min; for remaining at 1 h, 2 µM: time 60 min; for remaining at 2 h, 2 µM: time 120 min. On the procedure:
Briefly, pooled frozen plasma was thawed at 37 °C prior to experiments. Plasma was centrifuged at 3720 x g for 5 min and any clots were removed. All blanks and working solutions were aliquoted on an Apricot automation workstation (2 μL/well of working solution (100 μM) with 98 μL plasma for NACE2i peptide (CP300638) and control compounds somatostatin acetate and procaine hydrochloride). All reaction plates containing mixtures of NACE2i, somatostatin acetate, and procaine hydrochloride and plasma were incubated at 37 °C in a water bath for 0, 15, 30, 60, 120, 240, and 360 min. Incubation was stopped with 4% H3PO4 and stop solution (200 ng/mL tolbutamide and 200 ng/mL labetalol in MeOH) to precipitate protein. Each plate was sealed and shaken for 20 min and then centrifuged at 3720 x g at 4 °C for 20 min. After centrifugation, the Apricot workstation was used to transfer 150 μL supernatant to each bioanalysis plate, which was then sealed and shaken for 10 min prior to LC-MS/MS analysis as per the manufacturer’s guidelines. LC: Shimadzu LC 30-AD, MS: QTRAP 6500 + , Autosampler: CTC PAL.

Where [1] appears, read: male, monkey, pooled plasma, cynomolgus monkey plasma, n=2.
[2] abbreviates: monkey, plasma (pooled, frozen), cynomolgus monkey plasma, n=2.

The term share remaining denotes the share of the starting amount still present when the sample was taken.

Turning to `CCN(CC)CCOC(=O)c1ccc(N)cc1` [procaine hydrochloride, reference compound], the “% Remaining” value (cynomolgus monkey plasma, time 0 min, n=2) was found to be 100%. Under setting [1], this compound gave a fraction remaining at 0.25 h, 2 µM of 27.3%; a fraction remaining at 0.5 h, 2 µM of 3.07%; an amount remaining at 1 h, 2 µM of 0.813%; an amount remaining at 2 h, 2 µM of 0.381%. Under “male, monkey, pooled plasma, cynomolgus monkey plasma, time 360 min, n=2, read-out: % Remaining”, the amount remaining at 6 h, 2 µM worked out at 0.0209%. The amount remaining at 6 h, 2 µM (male, monkey, pooled plasma, pooled male cynomolgus monkey plasma, 2 µL of 100 µM working solution + 98 µL plasma, 37 °C, 360 min, LC-MS/MS, read-out: % remaining in plasma after 360 min incubation) came to 0%.

As to `C[C@H](N)C(=O)NCC(=O)N[C@H]1CSSC[C@@H](C(=O)O)NC(=O)[C@H](CO)NC(=O)[C@H]([C@@H](C)O)NC(=O)[C@H](Cc2ccccc2)NC(=O)[C@H]([C@@H](C)O)NC(=O)[C@H](CCCCN)NC(=O)[C@H](Cc2c[nH]c3ccccc23)NC(=O)[C@H](Cc2ccccc2)NC(=O)[C@H](Cc2ccccc2)NC(=O)[C@H](CC(N)=O)NC(=O)[C@H](CCCCN)NC1=O` [somatostatin acetate, reference compound], under setting [2], the amount remaining at 0.25 h, 2 µM amounted to 77.1%; the amount remaining at 0.5 h, 2 µM is 61.3%; the share remaining at 1 h, 2 µM was found to be 50.2%; the amount remaining at 2 h, 2 µM was 29%. This compound yielded a share remaining at 4 h, 2 µM (monkey, plasma (pooled, frozen), cynomolgus monkey plasma, time 240 min, n=2) of 18.1%. In addition, the amount remaining at 6 h, 2 µM (monkey, plasma (pooled, frozen), cynomolgus monkey plasma, time 360 min, n=2, read-out: % Remaining) amounted to 3.81%. Moreover, the “% remaining in plasma after 360 min incubation” value (pooled male cynomolgus monkey plasma, 2 µL of 100 µM working solution + 98 µL plasma, 37 °C, 360 min, LC-MS/MS) came out at 3.8%.
